# Measurements from US9717751B2, “Chitin or derivatives thereof for the prevention and/or treatment of parasitoses” (LESAFFRE ET COMPAGNIE, priority 2012, dated 2017).
# Where “and” joins values, the source holds several entries; their conditions need not be identical. Equal entries are not always repeated. Structures can show the parent of a compound that is named as a salt.
# Key:
# C. parvum [1] = experiment: Direct test: compound added to C. parvum-infected Caco-2 cells; assay type: cell-based, Cryptosporidium parvum; conditions: direct addition, 500 μg/ml; for Number of sporozoites: single tests; for Number of sporozoites, Mean: triplicate mean; for viability at 500 µg/mL: Cryptosporidium parvum, T+ = 100, read-out: % of viable sporozoites
# Procedure: (§1) Two cell models were tested: HCT-8 cells (human ileocecal adenocarcinoma cells) and Caco-2 cells (human colonic adenocarcinoma cells).
# (§2) The Iowa Cryptosporidium parvum strain (Waterborne inc., New Orleans, La., USA) is used for the tests.
# (§3) The infection is carried out on cells at 70%-80% confluence, cultured in a monolayer on collagen-coated coverslips in 24-well plates.
# (§4) The supernatant of the cells in a monolayer is replaced with 3 ml of culture medium to which 1×10^4 C. parvum oocysts are added. After incubation for 3 hours in a humid incubator at 37° C. and 5% CO2, the supernatant is replaced with 3 ml of culture medium and incubated for 48 h in a humid incubator at 37° C., 5% CO2 and 80% humidity.
# (§5) The culture medium of the infected cells is replaced with 1 ml of culture medium to which the test compound is then added, at a final concentration of 500 μg/ml.
# (§6) The plates are incubated for 48 h in a humid incubator at 37° C. and 5% CO2.
# (§7) The intracellular oocysts are stained after fixing the cells with methanol. The labeling is carried out using a specific conjugated polyclonal antibody (Sporo-Glo 20×Waterborne inc., New Orleans, La., USA). The coverslips are then mounted on slides. The intracellular oocysts are counted with a fluorescence microscope.
# (§8) On each slide, 6×50 fields randomly chosen over the entire surface area of the slide are counted.
# (§9) The results obtained are a triplicate mean. The data are analyzed by ANOVA. A p-value of less than or equal to 0.05 is considered to be significant.
# (§10) The various compounds are tested at a dose of 500 μg/ml.
# C. parvum [2] = experiment: Direct test: compound added to C. parvum-infected HCT-8 cells; assay type: cell-based, Cryptosporidium parvum; conditions: direct addition, 500 μg/ml; for Number of sporozoites: single tests; for Number of sporozoites, Mean: triplicate mean; for viability at 500 µg/mL: Cryptosporidium parvum, T+ = 100, read-out: % of viable sporozoites
# Procedure: as §1, §2, §3, §4, §5, §6, §7, §8, §9, §10
# C. parvum [3] = experiment: Effect of the compounds on C. parvum development in CMT-93 murine cells; assay type: cell-based, Cryptosporidium parvum; conditions: CMT-93 cells, 18 μg/ml
# Procedure: The C. parvum oocysts used were isolated from feces (stools) of calves that had been experimentally infected (by INRA [French National Institute for Agricultural Research] of Tours).
# The tests are carried out on cells of the CMT-93 murine line (mycoplasma-free) cultured in complete medium comprising 10% of FCS (Fetal Calf Serum).
# Interferon-γ at 10 ng/ml is used as a positive control. This is because partial inhibition of C. parvum multiplication in enterocytes under the action of this cytokine has been described.
# The cells of the CMT-93 line are seeded in a proportion of 3.6×10^5 cells per well.
# The test compounds are added after 8 h.
# After 24 h, the cells are lysed with trypsin and labeled with a fluorescent lectin (VVL-FITC), in order to be able to find the infected cells with a fluorescence microscope. The number of infected cells is found manually.
# C. parvum [4] = experiment: Preincubation test: C. parvum oocysts preincubated 24 h with compound, then infection of HCT-8 cells; assay type: cell-based, Cryptosporidium parvum; conditions: preincubation 24 h, 500 μg/ml; for Number of sporozoites: single tests; for Number of sporozoites, Mean: triplicate mean; for viability at 500 µg/mL: Cryptosporidium parvum, T+ = 100, read-out: % of viable sporozoites
# Procedure: (§11) Two cell models were tested: HCT-8 cells (human ileocecal adenocarcinoma cells) and Caco-2 cells (human colonic adenocarcinoma cells). The Iowa Cryptosporidium parvum strain (Waterborne inc., New Orleans, La., USA) is used for the tests. The infection is carried out on cells at 70%-80% confluence, cultured in a monolayer on collagen-coated coverslips in 24-well plates. The supernatant of the cells in a monolayer is replaced with 3 ml of culture medium to which 1×10^4 C. parvum oocysts are added. After incubation for 3 hours in a humid incubator at 37° C. and 5% CO2, the supernatant is replaced with 3 ml of culture medium and incubated for 48 h in a humid incubator at 37° C., 5% CO2 and 80% humidity. In each well of a plate, 1×10^4 oocysts are brought into contact with 500 μg/ml of paromomycin, chitosan or NAG. The plates are incubated for 24 h in a humid incubator at 37° C. and 5% CO2. The cells are then infected as indicated above. The intracellular oocysts are stained after fixing the cells with methanol. The labeling is carried out using a specific conjugated polyclonal antibody (Sporo-Glo 20×Waterborne inc., New Orleans, La., USA). The coverslips are then mounted on slides. The intracellular oocysts are counted with a fluorescence microscope. On each slide, 6×50 fields randomly chosen over the entire surface area of the slide are counted. The results obtained are a triplicate mean. The data are analyzed by ANOVA. A p-value of less than or equal to 0.05 is considered to be significant. The tested compounds are incubated for 24 h with C. parvum oocysts before the in vitro infection at a dose of 500 μg/ml.
# C. parvum [5] = experiment: Preincubation test: C. parvum oocysts preincubated 24 h with compound, then infection of Caco-2 cells; assay type: cell-based, Cryptosporidium parvum; conditions: preincubation 24 h, 500 μg/ml; for Number of sporozoites, Mean: triplicate mean; for viability at 500 µg/mL: Cryptosporidium parvum, T+ = 100, read-out: % of viable sporozoites
# Procedure: as §11
# CMT-93 cells = experiment: Chemokine production by epithelial cells (quantitative RT-PCR); assay type: cell-based, murine; conditions: 24 h incubation
# Procedure: The tests are carried out on cells of the CMT-93 murine line (mycoplasma-free) cultured in complete medium comprising 10% of FCS (Fetal Calf Serum) or on dendritic cells derived from bone marrow (immature) in the presence of GM-CSF (Granulocyte Macrophage Colony Stimulating Factor) added regularly to the culture for 9 days. Chemokine production by the epithelium or other intestinal cells is important for the recruitment of the inflammatory cells required for protection against cryptosporidiosis in newborns. Chemokine production by epithelial cells is measured by quantitative RT-PCR (quantification by incorporation of Sybr green) after incubation of CMT-93 cells with the various compounds for 24 h.
Compound,reduction in parasite development (C. parvum [1]),"Number of sporozoites, Mean (C. parvum [1]; 48 h)",effectiveness compared with paromomycin (C. parvum [2]),reduction in parasite development (C. parvum [2]),"Number of sporozoites, Mean (C. parvum [2]; 48 h)",reduction of parasite multiplication compared with the nontreated control (C. parvum [3]),reduction of parasite development (C. parvum [4]),"Number of sporozoites, Mean (C. parvum [4])",reduction of parasite development (C. parvum [5]),"Number of sporozoites, Mean (C. parvum [5])",viability at 500 µg/mL (C. parvum [1]; 48 h),viability at 500 µg/mL (C. parvum [2]; 48 h),Number of sporozoites (C. parvum [2]; 48 h),viability at 500 µg/mL (C. parvum [4]),viability at 500 µg/mL (C. parvum [5]),also measured
chitosan hydrochloride,68%,282,more effective than paromomycin,93.6%,73,31%,95.7%,47,97.6%,28,,,,,,"effectiveness compared with paromomycin (C. parvum [1]): more effective; % of viable sporozoites (C. parvum [1]; 48 h, T+ = 100): 32.0%; Number of sporozoites (C. parvum [1]; 48 h, hydrochloride): 372 and 199 and 276; % of viable sporozoites (C. parvum [2]; 48 h, T+ = 100): 6.4%; Number of sporozoites (C. parvum [2]; 48 h, hydrochloride): 90 and 66 and 64; % of viable sporozoites (C. parvum [4]; T+ = 100): 4.3%; Number of sporozoites (C. parvum [4]; hydrochloride): 47 and 52 and 37; % of viable sporozoites (C. parvum [5]; T+ = 100): 2.44%"
"CC(=O)N[C@H]1C(O)O[C@H](CO)[C@@H](O)[C@@H]1O (stereo partly drawn) [NAG, N-acetylglucosamine]",35.2%,571,more effective than paromomycin,88.4%,134,43%,99.0%,11,97.4%,30,64.8%,11.6%,172 and 131 and 99,0.99%,2.61%,"Number of sporozoites (C. parvum [1]; 48 h): 656 and 485 and 337; Number of sporozoites (C. parvum [4]): 12 and 14 and 7; production of chemokines CXCL10 and CCL20, ranking of the products (CMT-93 cells): most effective; Number of sporozoites (C. parvum [5]; single tests): 21 and 39 and 31"
poly-(N-deacetyl-D-glucosamine) [insoluble chitosan],,,,,,,,,,,,,,,,infected cells (C. parvum [3]; nontreated control 50% of infected cells): approximately 40%
"NC[C@@H]1O[C@H](O[C@H]2[C@@H](O)[C@H](O[C@@H]3[C@@H](O)[C@H](N)C[C@H](N)[C@H]3O[C@H]3O[C@H](CO)[C@@H](O)[C@H](O)[C@H]3N)O[C@@H]2CO)[C@H](N)[C@@H](O)[C@@H]1O [Paromomycin, paromomycin sulfate, reference compound]",33.6%,592,,44.6%,191,,99.5%,6,97.1%,33,66.4%,55.4%,208 and 178 and 187,0.53%,2.87%,
